Biological target: T1, RecG⋅DNA(A40:B40) (Thermotoga maritima, UniProt Q9WY48)
T1 construct: made in house
T1 sequence (Q9WY48 1-780): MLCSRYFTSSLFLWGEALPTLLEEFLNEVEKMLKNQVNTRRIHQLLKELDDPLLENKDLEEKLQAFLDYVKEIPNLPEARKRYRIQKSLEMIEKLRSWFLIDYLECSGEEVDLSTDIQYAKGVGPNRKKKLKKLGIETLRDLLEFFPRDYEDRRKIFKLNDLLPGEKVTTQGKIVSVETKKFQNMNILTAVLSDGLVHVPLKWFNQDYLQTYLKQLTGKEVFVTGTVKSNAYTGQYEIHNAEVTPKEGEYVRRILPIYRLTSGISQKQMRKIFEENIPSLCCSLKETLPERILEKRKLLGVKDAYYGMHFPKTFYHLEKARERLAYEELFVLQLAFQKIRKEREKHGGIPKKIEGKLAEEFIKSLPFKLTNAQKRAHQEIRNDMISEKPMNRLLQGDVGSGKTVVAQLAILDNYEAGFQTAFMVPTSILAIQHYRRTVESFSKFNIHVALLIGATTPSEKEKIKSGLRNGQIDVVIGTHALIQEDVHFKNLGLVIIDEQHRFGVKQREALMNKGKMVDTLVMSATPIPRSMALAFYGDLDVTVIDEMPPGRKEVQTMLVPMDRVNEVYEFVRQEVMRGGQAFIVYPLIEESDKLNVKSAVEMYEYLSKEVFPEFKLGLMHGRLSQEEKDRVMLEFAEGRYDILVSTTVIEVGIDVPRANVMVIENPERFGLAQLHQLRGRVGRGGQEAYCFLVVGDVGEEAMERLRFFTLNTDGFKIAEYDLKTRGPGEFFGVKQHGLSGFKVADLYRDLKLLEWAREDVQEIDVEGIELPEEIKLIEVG
Experiment: Stopped-flow mant fluorescence: mant nucleotide binding to RecG⋅DNA, pseudo-first-order
Settings: 20°C
Method: MantATP binding to RecG⋅DNA(A40:B40) was measured under pseudo-first-order conditions, that is mantATP in large excess over the protein. Using the stopped-flow apparatus, several concentrations of mantATP were rapidly mixed with RecG⋅DNA and fluorescence followed with time. Each trace was fitted by a single exponential (Figure 3A) and the concentration dependence of the observed rate constants were fit well by a hyperbola (Figure 3B). […] As mantATP is also hydrolyzed, the rate of the forward reaction needs to be included, in this case limited by the cleavage step 2, as described later. The fit gives 1/K 1a as 24 (±4) µM, k +1b + k −1b + k +2 as 26.1 (±1.8) s^−1 and the intercept gives k −1b + k +2 as <1 s^−1. Given that k +2 is 0.2 s^–1 (see below), k −1b is <0.8 s^−1. Potentially, an alternative explanation for such a hyperbolic relationship could be preferential binding of either the 2′- or 3′-isomer of mantATP and then isomerization of the non-favored isomer. However, the observed rates in these measurements were several orders of magnitude faster than the likely isomerization rate. In order to assess whether the two isomers of mantATP and their interconversion are factors in any fluorescence traces for mantATP, an equivalent measurement was made using 3′-mant-2′-deoxyATP.
Figure 3 MantATP binding to RecG⋅DNA. MantATP at the micromolar concentrations shown was mixed in the stopped flow apparatus with 0.5 µM RecG and 2.5 µM DNA Junction (A40:B40) at 20°C in the buffer described in materials and methods. Individual traces (offset from each other) were fitted to single exponentials and the dependence of the rate constants on concentration was then fitted by a hyperbola. The points shown are averages of at least 3 measurements. The fit gives 1/K 1a as 24 (±4) µM and k +1b + k− 1b + k +2 as 26.1 (±1.8) s^−1 and the intercept was <1 s^–1 (Scheme in Figure 2B).
MantADP binding to RecG⋅DNA complex was measured under pseudo-first order conditions by stopped-flow fluorescence.
Figure 5 MantADP binding kinetics to RecG⋅DNA. MantADP at various concentrations was mixed in the stopped flow apparatus with 0.5 µM RecG and 2.5 µM DNA (A40:B40) under the conditions of Figure 4. Traces (not shown) were fitted by single exponentials. The rate constants are shown as a function of concentration and the best linear fit, gives a slope of 1.1 (±0.4) µM^−1s^−1 and an intercept of <1 s^−1.
Stopped-flow experiments were performed in a HiTech SF61DX2 apparatus (TgK Scientific Ltd, Bradford-on-Avon, UK) with a mercury-xenon light source and HiTech KinetAsyst 3 or Kinetic Studio 1 software. For MDCC-PBP fluorescence, the excitation wavelength used was 436 nm and a 455 nm cut-off filter (Schott glass) used to collect emitted light. The signal was calibrated using known concentrations of Pi. The solutions contained the Pi mop, to minimize phosphate contamination and comprising 0.01 unit ml^−1 bacterial purine nucleoside phosphorylase and 200 µM 7-methylguanosine. For mant fluorescence, 366 nm was used to excite and a 400 nm cut-off filter (Schott glass) used to collect light. Measurements of Cy3 fluorescence used 547 nm excitation and a 570 nm cut-off filter. In experiments described, the quoted concentrations are those in the mixing chamber, except where stated. Data were fitted to theoretical curves using the HiTech software or Grafit.

CNc1ccccc1C(=O)O[C@H]1[C@@H](O)[C@H](n2cnc3c(N)ncnc32)O[C@@H]1COP(=O)(O)OP(=O)(O)OP(=O)(O)O [mantATP, 2′(3′)-O-(N-methylanthraniloyl)ATP]
k +1b: 25.1 s⁻¹
k −1b: <0.8 s⁻¹
k −4 (mantADP second order binding rate constant, slope) (linear fit): 1.1e+06 M⁻¹ s⁻¹
intercept, k −1b + k +2 (hyperbolic fit): < 1 s⁻¹
k +1b + k −1b + k +2 (hyperbolic fit): 26.1 (±1.8) s^−1

From paper PMC3368886, “ATPase Cycle and DNA Unwinding Kinetics of RecG Helicase” (PLoS ONE, 2012)
